According to patent US8835428B2, “Diacylglycerol acyltransferase inhibitors” (Piramal Enterprises Limited, priority 2008, dated 2014):

The molecules below were run against T1, hDGAT1 (Homo sapiens, UniProt O75907) (assay: In-vitro DGAT1 assay (hDGAT1 microsomes from Sf9 cells, 14C oleoyl CoA, triglyceride formation)). Conditions: At 1 μM.
T1 construct: host or cells: Sf9 insect cells (baculovirus); microsomal preparation
T1 sequence (O75907 1-488): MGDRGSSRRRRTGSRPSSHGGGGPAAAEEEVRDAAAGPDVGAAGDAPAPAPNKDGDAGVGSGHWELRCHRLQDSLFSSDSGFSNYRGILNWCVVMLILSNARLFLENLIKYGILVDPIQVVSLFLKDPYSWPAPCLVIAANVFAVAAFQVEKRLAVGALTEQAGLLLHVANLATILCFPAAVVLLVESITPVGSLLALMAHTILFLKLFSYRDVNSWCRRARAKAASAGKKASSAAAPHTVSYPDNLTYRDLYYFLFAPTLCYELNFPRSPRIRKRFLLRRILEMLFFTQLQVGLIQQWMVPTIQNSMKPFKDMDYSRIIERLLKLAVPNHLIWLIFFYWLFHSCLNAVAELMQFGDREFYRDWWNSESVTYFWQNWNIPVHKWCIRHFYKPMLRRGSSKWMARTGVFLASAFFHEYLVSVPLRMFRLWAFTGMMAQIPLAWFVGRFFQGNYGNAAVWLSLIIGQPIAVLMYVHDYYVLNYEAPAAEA
Type: biochemical
Protocol: In-vitro Protocol for DGAT1 Assay
Sf9 Culture and Treatment
Sf9 cells were grown in T25 flasks containing Graces's Insect media with 10% FBS with antibiotic (100 units/mL penicillin, 100 μg/mL streptomycin sulphate, 0.25 μg/mL Amptotericin B as Fungizone) grown in a 27° C. incubator:
hDGAT1ORF expression clone (RZPDo839C09146 in pDEST vector) was obtained from RZPD, Germany. hDGAT1 bacmid DNA was obtained by transformation of the hDGAT expression clone into DH10Bac E. coli competent cells. Approximately 1 μg of hDGAT1 bacmid DNA was infected into Sf9 cells with Cellfectin (Invitrogen) reagent. Following infection, Sf9 cells were incubated at 27° C. for 30 minutes. Five hours after infection, the media was replaced with growth media containing antibiotic (100 units/mL penicillin, 100 μg/mL streptomycin sulphate, 0.25 μg/mL Amptotericin B as Fungizone) and incubated at 27° C. for 72 hours. The supernatant containing the virus was centrifuged at 1500×g for 5 minutes, passed through 0.22 μm filter, and subsequently stored at 4° C. The virus was further amplified three more times by re-infection of Sf9 cells and the viral titer was determined by plaque assay.
Preparation of DGAT1 Microsomes from Sf9 Cells
Sf9 cells were seeded in spinner flasks on day 0 at a cell density of 1×10^6 and infected on day 1 with hDGAT1 baculovirus at a multiplicity of infection (MOI) of 5 and a cell density of 2×10^6. On day 3 (or 66-72 hours), cells were harvested and centrifuged at 2500×g for 10 minutes. Pellet was resuspended in lysis buffer (100 mM sucrose, 50 mM KCl, 40 mM KH2PO4, 30 mM EDTA, pH 7.2) and passed through 21-gauge needle approximately 10 times. The mixture was centrifuged at 12,000 rpm in a Sigma 12158-H rotor at 4° C. for 30 minutes. The supernatant was subjected to centrifugation at 35,000 rpm in a Beckman Ti-45 rotor at 4° C. for 1 hour. The resultant pellet containing the microsomes were resuspended overnight in 1 mL of lysis buffer and total protein concentration was estimated using Bradford Reagent. Microsomes were aliquoted and stored at −20° C.
Measurement of DGAT1 Activity
Frozen aliquots of hDGAT1 containing microsomes were thawed (5-10 mg/mL total protein) on ice and diluted to a working stock of 1 mg/mL with DGAT Assay Buffer (DAB). The DGAT reaction assay was performed by following the procedure described in U.S. Pat. No. 6,607,893 with some modifications that are described below.
Preparation of DGAT1 substrate mixture: 1 mL stock solution of DGAT1 substrate mixture contains (i) 5.6 μL of ^14C oleoyl CoA (16.8 nCi) and 35 μL 1,2-dioleoyl-sn-glycerol (409.5 μM) or (ii) 5.6 μL of ^14C oleoyl CoA (16.8 nCi) and 105 μL 1,2-dioleoyl-sn-glycerol (1228.5 μM) or (iii) 5.6 μL of ^14C oleoyl CoA (16.8 nCi) and 140 μL 1,2-dioleoyl-sn-glycerol (1638 μM).
1,2-sn-dioleoylglycerol substrate concentration in the 1 mL stock solution of DGAT1 substrate mixture was varied depending on the microsome concentration used in the assay reaction. 1,2-dioleoyl-sn-glycerol stock (19.5 mM) was prepared by dissolving 25 mg of 1,2-dioleoyl-sn-glycerol (Sigma, US) in 2060 μL of acetone. The assay was performed in duplicates in a reaction volume of 100 μL. The reaction volume consisted of: • (i) 27.5 μL of DGAT assay buffer (0.25M Sucrose, 1 mM EDTA (pH 8.0), 150 mM Tris-HCl, pH 7.4, 1.25 mg/mL, fatty acid free BSA), • (ii) 10 μL of compound, of present invention or standard (dissolved in DMSO and diluted to 10× with DAB and screened at 10 μM, 5 μM and 1 μM), • (iii) 60 μL DGAT1 substrate mixture taken from a 1 mL stock (16.8 nCi of ^14C oleoyl CoA and 409.5 μM or 1228.5 μM or 1638 μM of 1,2-dioleyl-sn-glycerol), • (iv) 2.5-10 μL of 1 mg/mL of microsomes (the amount of assay buffer was varied depending upon the concentration of microsome to make up the volume to 100 μL). Procedure:
The reaction was started by the addition of 2.5-10 μL of 1 mg/mL of microsomes (iv) to a mixture of (i), (ii) and (iii), vortexed and incubated at 37° C. for 10 minutes. […]

inhibition at 1 µM | Structure (SMILES)
50 to 75% | O=C(Nc1ccc(-c2cc(C(=O)N3CCC[C@@H]3C(=O)O)on2)cc1)Nc1ccccc1F [Example 260, (R)-1-(3-(4-(3-(2-Fluorophenyl)ureido)phenyl)isoxazole-5-carbonyl) pyrrolidine-2-carboxylic acid]
75 to 100% | Cc1ccc(F)cc1NC(=O)Nc1ccc(-c2cc(C(=O)NC(C(=O)O)C(C)C)on2)cc1 (stereo not drawn) [Example 252, 2-(3-(4-(3-(5-Fluoro-2-methylphenyl)ureido)phenyl)isoxazole-5-carboxamido)-3-methylbutanoic acid]
0 to 50% | CC(C)C(NC(=O)c1cc(-c2ccc(OCc3ccccc3C(F)(F)F)cc2)no1)C(=O)O (stereo not drawn) [Example 330, 3-Methyl-2-(3-(4-(2-(trifluoromethyl)benzyloxy)phenyl)isoxazole-5-carboxamido)butanoic acid]
75 to 100% | CC(C)[C@@H](NC(=O)c1cc(-c2ccc(NC(=O)Nc3ccccc3Cl)cc2)no1)C(=O)O [Example 221, (R)-2-(3-(4-(3-(2-Chlorophenyl)ureido)phenyl)isoxazole-5-carboxamido)-3-methylbutanoic acid]
75 to 100% | CCCCc1ccc(NC(=O)Nc2ccc(-c3cc(C(=O)NC(C(=O)O)C(C)C)on3)cc2)cc1 (stereo not drawn) [Example 158, 2-(3-(4-(3-(4-butylphenyl)ureido)phenyl)isoxazole-5-carboxamido)-3-methylbutanoic acid]
0 to 50% | Cc1ccc(NC(=O)Nc2ccc(-c3nc(C(=O)N[C@H](C(=O)O)C(C)C)cs3)cc2)cc1C [Example 363, (S)-2-(2-(4-(3-(3,4-dimethylphenyl)ureido)phenyl)thiazole-4-carboxamido)-3-methylbutanoic acid]
50 to 75% | COC(=O)[C@H]1CCCN1C(=O)c1cc(-c2ccc(NC(=O)Nc3ccccc3F)cc2)no1 [Example 259, (R)-Methyl 1-(3-(4-(3-(2-fluorophenyl)ureido)phenyl)isoxazole-5-carbonyl)pyrrolidine-2-carboxylate]

Same assay, conditions: At 5 μM

inhibition at 5 µM | Structure (SMILES)
0 to 50% | COC(=O)[C@H](Cc1ccc(O)cc1)NC(=O)c1cc(-c2ccc(NC(=O)Nc3ccccc3F)cc2)no1 [Example 274, (S)-Methyl 2-(3-(4-(3-(2-fluorophenyl)ureido)phenyl)isoxazole-5-carboxamido)-3-(4-hydroxyphenyl)propanoate]
50 to 75% | CC(C)C(NC(=O)c1cc(-c2ccc(NC(=O)Nc3ccccn3)cc2)no1)C(=O)O (stereo not drawn) [Example 280, 3-methyl-2-(3-(4-(3-pyridin-2-ylureido)phenyl)isoxazole-5-carboxamido)butanoic acid]
0 to 50% | COC(=O)C(Cc1ccccc1)NC(=O)c1cc(-c2ccc(NC(=O)Nc3ccccc3F)cc2)no1 (stereo not drawn) [Example 241, Methyl 2-(3-(4-(3-(2-fluorophenyl)ureido)phenyl)isoxazole-5-carboxamido)-3-phenylpropanoate]

Same assay, conditions: At 10 μM

inhibition at 10 µM | % inhibition of hDGAT1 | Structure (SMILES)
75 to 100% |  | CC(C)[C@H](NC(=O)c1cc(-c2ccc(NC(=O)NC3CCCCC3)cc2)no1)C(=O)O [Example 81, (S)-2-({3-[4-(3-cyclohexyl-ureido)-phenyl]-isoxazole-5-carbonyl}-amino)-3-methyl-butyric acid]
0 to 50% |  | COC[C@H](NC(=NO)c1cc(-c2cccc(Nc3nc4ccc(F)cc4s3)c2)no1)C(=O)O [Example 33, (S)-2-({3-[3-(6-Fluoro-benzothiazol-2-ylamino)-phenyl]-N-hydroxy-isoxazole-5-carboximidoyl}-amino)-3-methoxy-propionic acid]
0 to 50% |  | COC(=O)[C@@H](NC(=O)c1c(-c2ccc(Nc3nc4ccc(F)cc4s3)cc2)noc1-c1ccccc1)C(C)C [Example 68, (S)-2-({3-[4-(6-Fluoro-benzothiazol-2-ylamino)-phenyl]-5-phenyl-isoxazole-4-carbonyl}-amino)-3-methyl-butyric acid methyl ester]
50 to 75% |  | COC(=O)C(NC(=O)c1cc(-c2ccc(NC(=O)Nc3ccccc3F)c(F)c2)no1)C(C)C (stereo not drawn) [Example 147, Methyl 2-(3-(3-fluoro-4-(3-(2-fluorophenyl)ureido)phenyl)isoxazole-5-carboxamido)-3-methylbutanoate]
0 to 50% |  | COC(=O)C(CC(C)C)NC(=O)c1cc(-c2ccc(NC(=O)NCc3ccccc3)cc2)no1 (stereo not drawn) [Example 109, Methyl 2-(3-(4-(3-benzylureido)phenyl)isoxazole-5-carboxamido)-4-methylpentanoate]
 | ++ (>50% Inhibition ≦75) | COC(=O)[C@@H](NC(=O)c1cc(-c2ccc(NC(=O)NC3CCCCC3)cc2)no1)C(C)C [Example 80, (S)-2-(S)-2-({3-[4-(3-cyclohexyl-ureido)-phenyl]-isoxazole-5-carbonyl}-amino)-3-methyl-butyric acid methyl ester]
75 to 100% |  | CC(C)C(NC(=O)c1nc(-c2ccc(NC(=O)Nc3ccc(F)cc3F)cc2)no1)C(=O)O (stereo not drawn) [Example 104, 2-(3-(4-(3-(2,4-difluorophenyl)ureido)phenyl)-1,2,4-oxadiazole-5-carboxamido)-3-methylbutanoic acid]
75 to 100% |  | CC(C)[C@H](NC(=O)c1cc(-c2ccc(NC(=O)Nc3ccccc3)cc2)no1)C(=O)O [Example 77, (S)-3-Methyl-2-({3-[4-(3-phenyl-ureido)-phenyl]-isoxazole-5-carbonyl}-amino)-butyric acid]
50 to 75% |  | COC(=O)C(NC(=O)c1cc(-c2ccc(NC(=O)Nc3c(F)cccc3F)cc2)no1)C(C)C (stereo not drawn) [Example 123, Methyl 2-(3-(4-(3-(2,6-difluorophenyl)ureido)phenyl)isoxazole-5-carboxamido)-3-methylbutanoate]
50 to 75% |  | COC(=O)C1(NC(=O)c2cc(-c3ccc(NC(=O)Nc4ccc(F)cc4)cc3)no2)CCCC1 [Example 119, Methyl 1-(3-(4-(3-(4-fluorophenyl)ureido)phenyl)isoxazole-5-carboxamido)cyclopentanecarboxylate]
0 to 50% |  | O=C(O)[C@@H]1CCCN1C(=O)c1cc(-c2cccc(Nc3nc4ccc(F)cc4s3)c2)no1 [Example 35, (S)-1-{3-[3-(6-Fluoro-benzothiazol-2-ylamino)-phenyl]-isoxazole-5-carbonyl}-pyrrolidine-2-carboxylic acid]
